Test results: ChEMBL document CHEMBL6115036, “Exploration of membrane-active cephalosporin derivatives as potent antibacterial agents against Staphylococcus aureus biofilms and persisters” (Eur J Med Chem, 2025)
Values after ≈ are worked out from the molar mass of the structure shown. Active and inactive are the calls of the source. The calls are words filed in the database; no cut-off is given here.

Experiments:
[1] = system: Stenotrophomonas maltophilia; assay: Antimicrobial activity against Stenotrophomonas maltophilia incubated for 16 to 18 hrs by broth dilution assay; type: functional; conditions: time 16-18 hrs
Escherichia coli = assay: Antimicrobial activity against Escherichia coli incubated for 16 to 18 hrs by broth dilution assay; type: functional; conditions: time 16-18 hrs
Staphylococcus aureus [2] = assay: Induction of cytoplasmic membrane depolarization in Staphylococcus aureus assessed as increase in fluorescence intensity at 32 ug/ml measured for 20 mins by DiSC3(5) dye based analysis; type: functional, organism-based; conditions: dose 32.0 µg/ml
Enterococcus faecalis = assay: Antimicrobial activity against Enterococcus faecalis incubated for 16 to 18 hrs by broth dilution assay; type: functional; conditions: time 16-18 hrs
[3] = Hemolytic activity in sheep red blood cells incubated for 1 hr; type: toxicity, cell-based, Ovis aries, Erythrocyte
Staphylococcus aureus [4] = assay: Induction of inner membrane permeability in Staphylococcus aureus assessed as increase in fluorescence intensity at 32 ug/ml measured for 20 mins by PI dye based analysis; type: functional, organism-based; conditions: dose 32.0 µg/ml
Staphylococcus aureus [5] = assay: Antimicrobial activity against Staphylococcus aureus incubated for 16 to 18 hrs by broth dilution assay; type: functional; conditions: time 16-18 hrs
Staphylococcus aureus [6] = assay: Disruption of cell membrane in Staphylococcus aureus assessed as protein leakage at 32 ug/ml measured after 2 hrs by fluorescence based analysis; type: functional, organism-based; conditions: dose 32.0 µg/ml
Staphylococcus aureus [7] = assay: Disruption of cell membrane in Staphylococcus aureus assessed as nucleic acid leakage at 32 ug/ml measured after 2 hrs by fluorescence based analysis; type: functional, organism-based; conditions: dose 32.0 µg/ml
Staphylococcus aureus [8] = assay: Antibacterial activity against rifampicin-induced persistant Staphylococcus aureus assessed as decrease in CFU at 100 times MIC measured for 10 hrs; type: functional, organism-based
Staphylococcus aureus [9] = assay: Inhibition of biofilm formation in Staphylococcus aureus assessed as reduction in number of live bacterial count at 16 times MIC incubated for 24 hrs; type: functional
Staphylococcus aureus [10] = assay: Induction of inner membrane permeability in Staphylococcus aureus assessed as increase in fluorescence intensity measured for 20 mins by PI dye based analysis; type: functional, organism-based
Staphylococcus aureus [11] = assay: Induction of cytoplasmic membrane depolarization in Staphylococcus aureus assessed as increase in fluorescence intensity measured for 20 mins by DiSC3(5) dye based analysis; type: functional, organism-based
Staphylococcus aureus [12] = assay: Induction of resistance development in norfloxacin-resistant Staphylococcus aureus assessed as fold increase in MIC at sub-MIC measured after 20 passages relative to control; type: functional
[13] = Cytotoxicity against human HeLa cells incubated for 24 hrs by CCK8 assay; type: toxicity, cell-based
Staphylococcus aureus [14] = assay: Antibacterial activity against Staphylococcus aureus assessed as fold increase in MIC in presence of 50% FBS; type: functional
Staphylococcus aureus [15] = assay: Antibacterial activity against Staphylococcus aureus assessed as fold increase in MIC in presence of 50% sheep plasma; type: functional
Staphylococcus aureus [16] = assay: Induction of intracellular ROS accumulation in Staphylococcus aureus incubated overnight by DCFH-DA dye based analysis; type: functional, organism-based
[17] = Cytotoxicity against HUVEC cells incubated for 24 hrs by CCK8 assay; type: toxicity, cell-based; conditions: human
Staphylococcus aureus [18] = assay: Induction of resistance development in Staphylococcus aureus assessed as fold increase in MIC at sub-MIC measured after 20 passages relative to control; type: functional

Structure (SMILES) | MIC [1] [µg/mL] | MIC (Escherichia coli) [µg/mL] | MIC (Enterococcus faecalis) [µg/mL] | HC50 at 1 h [3] [µg/mL] | MIC (Staphylococcus aureus [5]) [µg/mL] | Activity (Staphylococcus aureus [10]) | Activity (Staphylococcus aureus [11]) | further results
CCCCCCCCCC[n+]1ccc(-c2cc[n+](CC3=C(C(=O)OCc4ccc(OC)cc4)N4C(=O)[C@@H](NC(=O)Cc5ccccc5)[C@H]4SC3)cc2)cc1.[I-].[I-] | 128 | 128 | 16 | > 1280 | 0.5 | – | – | Activity (Staphylococcus aureus [2]): Active; Activity (Staphylococcus aureus [4]): Active
CCCCCCCCCCCC[n+]1ccc(-c2cc[n+](CC3=C(C(=O)[O-])N4C(=O)[C@@H](NC(=O)Cc5ccccc5)[C@H]4SC3)cc2)cc1.O=C([O-])C(F)(F)F | > 128 | 128 | 4 | 333 | 0.25 | – | – | Activity (Staphylococcus aureus [6]): inactive; Activity (Staphylococcus aureus [2]): Active; Activity (Staphylococcus aureus [7]): inactive; Activity (Staphylococcus aureus [4]): Active
CO[C@H]1/C=C/O[C@@]2(C)Oc3c(C)c(O)c4c(O)c(c(/C=N/N5CCN(C)CC5)c(O)c4c3C2=O)NC(=O)/C(C)=C\C=C\[C@H](C)[C@H](O)[C@@H](C)[C@@H](O)[C@@H](C)[C@H](OC(C)=O)[C@@H]1C | – | – | – | – | – | – | – | Activity (Staphylococcus aureus [8]): inactive
CN[C@H](CC(C)C)C(=O)N[C@H]1C(=O)N[C@@H](CC(N)=O)C(=O)N[C@H]2C(=O)N[C@H]3C(=O)N[C@H](C(=O)N[C@H](C(=O)O)c4cc(O)cc(O)c4-c4cc3ccc4O)[C@H](O)c3ccc(c(Cl)c3)Oc3cc2cc(c3O[C@@H]2O[C@H](CO)[C@@H](O)[C@H](O)[C@H]2O[C@H]2C[C@](C)(N)[C@H](O)[C@H](C)O2)Oc2ccc(cc2Cl)[C@H]1O [VANCOMYCIN] | – | – | 2 (≈ 1.38 µM) | > 1280 | – | – | – | Activity (Staphylococcus aureus [9]): ~1 10^5CFU/ml
CCCCCCCC[n+]1ccc(SCC2=C(C(=O)OCc3ccc(OC)cc3)N3C(=O)[C@@H](NC(=O)Cc4ccccc4)[C@H]3SC2)cc1.O=C([O-])C(F)(F)F | 128 | 64 | 8 | – | 0.063 | Active | Active | –
CCCCCCCC[n+]1ccc(SCC2=C(C(=O)O)N3C(=O)[C@@H](NC(=O)Cc4ccccc4)[C@H]3SC2)cc1.O=C([O-])C(F)(F)F | 128 | 128 | 4 | – | 0.063 | inactive | inactive | –
O=C(O)c1cn(C2CC2)c2cc(N3CCNCC3)c(F)cc2c1=O [CIPROFLOXACIN] | – | – | – | – | – | – | – | fold change (FC) (Staphylococcus aureus [12]): 64; Activity (Staphylococcus aureus [8]): inactive
CC[C@H](C)[C@H](NC(=O)CN)C(=O)NCC(=O)N[C@@H](C)C(=O)N[C@H](C(=O)N[C@@H](CC(C)C)C(=O)N[C@@H](CCCCN)C(=O)N[C@H](C(=O)N[C@@H](CC(C)C)C(=O)N[C@H](C(=O)N[C@H](C(=O)NCC(=O)N[C@@H](CC(C)C)C(=O)N1CCC[C@H]1C(=O)N[C@@H](C)C(=O)N[C@@H](CC(C)C)C(=O)N[C@H](C(=O)N[C@@H](CO)C(=O)N[C@@H](Cc1c[nH]c2ccccc12)C(=O)N[C@H](C(=O)N[C@@H](CCCCN)C(=O)N[C@@H](CCCNC(=N)N)C(=O)N[C@@H](CCCCN)C(=O)N[C@@H](CCCNC(=N)N)C(=O)N[C@@H](CCC(N)=O)C(=O)N[C@@H](CCC(N)=O)C(N)=O)[C@@H](C)CC)[C@@H](C)CC)[C@@H](C)O)[C@@H](C)O)C(C)C)C(C)C [MELITTIN] | 8 (≈ 2.81 µM) | – | 2 (≈ 0.703 µM) | – | – | – | – | CC50 at 24 h [13]: 3.9 µg/mL (≈ 1.37 µM); fold change (FC) (Staphylococcus aureus [14]): >32; fold change (FC) (Staphylococcus aureus [15]): >32; Activity (Staphylococcus aureus [16]): Dose-dependent-effect; CC50 at 24 h [17]: 3.8 µg/mL (≈ 1.33 µM)
CCCCCC[n+]1ccc(C(=O)N[C@@H]2C(=O)N3C(C(=O)O)=C(COC(C)=O)CS[C@H]23)cc1.[I-] | > 128 | > 128 | > 128 | – | > 128 | inactive | inactive | –
CCn1cc(C(=O)O)c(=O)c2cc(F)c(N3CCNCC3)cc21 [NORFLOXACIN] | – | – | – | – | – | – | – | fold change (FC) (Staphylococcus aureus [12]): 64; fold change (FC) (Staphylococcus aureus [18]): 64
